Laboratory results: patent publication US9944607B2, “Thiohydantoin derivatives and uses thereof” (Whitehead Institute for Biomedical Research, priority 2012, dated 2018)
pIC50: −log10 of the molar value. Like-named read-outs stand apart in the source and are kept apart here.

Assays:
PBS stability = type: physicochemical; conditions: PBS pH 7.4, 23° C.
Protocol: Stability was determined in the presence of PBS pH 7.4 with 0.1% DMSO. […] One plate was removed at each time point (0, 2, 4, 8, 24, and 48 hours). […] Additionally, to the remaining material at each time point, acetonitrile was added to force dissolution of compound (to test for recovery of compound). An aliquot of this was also analyzed by UPLC-MS.

[1] = test system: mitochondrial membrane potential of S. cerevisiae; test: Secondary mitochondrial disruption assay (JC-1 dye, flow cytometry); type: cell-based, Saccharomyces cerevisiae; conditions: living S. cerevisiae treated with 1 μM compound; AIDs 624062, 624068
Protocol: Procedures • Use a Thermo Combi nL to dispense 20 μL/well of assay media into all wells. • Add 2 μL of Amphotericin B to control wells. • Pin 100 nL of test compound from compound plates into assay plates using a CyBi-Well pin tool. • Dispense 20 μL/well of culture into the assay media in all wells. • Incubate the plates in a humidified (90% humidity) Liconic incubator at 37° C. without agitation for 48 hours. • Shake plates briefly. • Read OD600 of wells on a standard plate reader as measure of relative fungal growth. Envision (Perkin Elmer) plate reader settings: Ex Photometric 600, Top read. 4.5. Secondary Mitochondrial Disruption Assay (AID No. 624062 and 624068)
The fluorescent dye JC-1 was used to quantify the ability of compounds to disrupt the mitochondrial membrane potential of fungi. Mitochondrial membrane depolarization is indicated by a decrease in the yellow/green fluorescence intensity ratio. This is a non-gating, binning assay that establishes whether inhibition of fungal growth in glycerol results from direct compromise of mitochondrial function or alternative components of fungal respiratory metabolism. Probes that disrupt mitochondrial function as well as those that perturb other metabolic components are desirable. […]
Additionally, direct impairment of mitochondrial function in C. glabrata and S. cerevisiae was assessed using a fluorescence assay.

Candida albicans CaCi-2 [2] = test: Broth microdilution growth inhibition of C. albicans CaCi-2 in presence or absence of fluconazole; type: cell-based; conditions: CACI2, RPMI media
Protocol: Growth inhibition of I-B-4 (ML316) against Candida albicans CaCi-2 in the presence or absence of fluconazole was assessed using the broth microdilution method with RPMI media.

Candida albicans CaCi-2 [3] = test: Colony counts over time, C. albicans CaCi-2 in RPMI (FIG. 15); type: cell-based; conditions: colonies counted after 24 and 48 hours
Protocol: […] The CaCi-2 strain was inoculated into RPMI media at 10^3 CFU/mL in the presence or absence of 5 μM I-B-4 (ML316) and 32 ug/mL fluconazole. Colonies were plated from the cultures after 24 and 48 hours and counted.

[4] = molecular target: S. cerevisiae cytochrome bc1 complex (Saccharomyces cerevisiae, UniProt P00163); conditions: cited from earlier work
bovine bc1 complex = bovine bc1 complex (Bos taurus, UniProt P00157); conditions: read-out: IC50, isolated bovine bc1 complex; studies by Trumpower et al.; cited from earlier work
HeLa cells = conditions: Hayakawa et al. 1971, cited from earlier work

Row | SMILES | Stability in PBS solution, % remaining after a 48-hour incubation (PBS stability) [%] | Depolarization of the mitochondrial membrane (JC-1 dye) [1] | pIC50 (Candida albicans CaCi-2 [2]; absence of fluconazole (FIG. 8), read-out: IC50 against C. albicans CaCi-2 growth, compound alone) | pIC50 (Candida albicans CaCi-2 [2]; presence of fluconazole (FIG. 8), read-out: IC50 against C. albicans CaCi-2 growth, with FCZ) | Cytotoxicity to fluconazole-resistant C. albicans CaCi-2, compound alone (Candida albicans CaCi-2 [3]; 5 μM I-B-4) | Cytotoxicity to fluconazole-resistant C. albicans CaCi-2, combination with fluconazole (FCZ) (Candida albicans CaCi-2 [3]; 5 μM I-B-4 and 32 ug/mL fluconazole) | Selectivity for S. cerevisiae (fungal) bc1 complex over bovine bc1 complex ([4]; biochemical assays with purified proteins, literature) [fold] | pIC50 ([4]; read-out: IC50, purified S. cerevisiae cytochrome bc1 complex, studies by Trumpower et al.) | pIC50 (bovine bc1 complex) | MIC against HeLa cells (HeLa cells) [µg/mL] | MIC against HeLa cells (HeLa cells; same value converted) [µM]
1 | CCOC(=O)N1C(=O)C2(CCCCC2)N(c2ccc(F)cc2)C1=S [CID 56604860, Ethyl 1-(4-fluorophenyl)-4-oxo-2-thioxo-1,3-diazaspiro[4.5]decane-3-carboxylate] | > 60 | depolarization of the mitochondrial membrane does not occur | 6.92 | 8.00 | cytotoxic | cytotoxic | – | – | – | – | –
2 | C/C=C/C1[C@H]2C[C@@H](C)CC[C@@H]2C(C)=C[C@H]1C(=O)c1c(O)c(-c2ccc(O)cc2)c[nH]c1=O (some centres unmarked) [ilicicolin H, reference compound] | – | – | – | – | – | – | 100 | 8.52 | 6.70 | 2 | 4.6
